Patent publication US20250250227A1, “AMINO LIPID COMPOUND, PREPARATION METHOD THEREFOR, COMPOSITION THEREOF AND USE THEREOF” (SHENZHEN SHENXIN BIOTECHNOLOGY CO., LTD., priority 2022, published 2025)

Columns and labels:
[1] = Preparation and characterisation of mRNA-encapsulating lipid nanoparticle (encapsulation efficiency, particle size); assay type: physicochemical; settings: LNP encapsulating Fluc mRNA; Lipid:DSPC:CHO-HP:M-DMG-2000 48:10:40.5:1.5
In short: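 Fluc mRNA in sodium acetate buffer mixed with ethanolic amino lipid:DSPC:CHO-HP:M-DMG-2000 (48:10:40.5:1.5 molar) by microfluidics, mRNA:lipid mass ratio 1:10, then dialysed 2 h against Tris-8% sucrose and 0.22 μm filtered. Final mRNA 0.2 g/L; particle size and encapsulation efficiency measured.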

[2] = test system: Female BALB/c mice; experiment: Performance evaluation of in vivo delivery of Fluc mRNA lipid nanoparticle (IVIS, body and organs); settings: Fluc mRNA LNP; for Liver (fluorescence expression intensity) / Spleen (fluorescence expression intensity): 75 μL IV; for Liver (fluorescence expression intensity) / Spleen (fluorescence expression intensity) / Total flux (fluorescence expression intensity) / (Spleen/Total Flux) * 100%: 6 hours after injection; for Liver (fluorescence expression intensity) / Spleen (fluorescence expression intensity) / Total flux (fluorescence expression intensity): IVIS; for Total flux (fluorescence expression intensity): 75 μL tail vein injection (IV); for (Spleen/Total Flux) * 100% / Multiple of spleen delivery/total delivery to amino lipid compound 118: IV; for Multiple of spleen delivery/total delivery to amino lipid compound 118: relative to amino lipid compound 118
In short: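 Female BALB/c mice, 6-8 weeks, received 75 μL Fluc mRNA-LNP by tail-vein injection, 3 mice per formulation. At 6 h, 200 μL D-luciferin was injected, mice were anesthetized with isoflurane, and IVIS bioluminescence was imaged in body and organs.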

[3] = test system: Female BALB/c mice; experiment: In vivo safety of hEPO mRNA lipid nanoparticle: serum alanine aminotransferase (ALT) enzyme activity; settings: hEPO mRNA LNP, 300 μL IV, serum 12 h after injection; FIG. 1
Experimental: A human erythropoietin mRNA (hEPO mRNA)-encapsulating lipid nanoparticle formulation was prepared according to the method as described in Experimental Example 1, with replacing the luciferase mRNA (Fluc mRNA) with human erythropoietin mRNA (hEPO mRNA), with a concentration of hEPO mRNA of 0.2 g/L, a mass ratio of hEPO mRNA to Lipid of 1:10, a particle size of 90-130 nm, and an encapsulation efficiency of above 90% or higher.
(§1) Animal preparation: Female BALB/c mice of 6-8 weeks old were selected and raised in an SPF grade breeding room. Animal testing was conducted in strict accordance with the guidelines of national health institutions and animal ethics requirements.
In vivo Delivery: Prior to injection of the test LNP formulations, the LNP formulations were gently and repeatedly inverted to thoroughly mix the formulation samples. A corresponding amount of the formulation samples were aspirated with a 1 ml insulin syringe, and the LNP formulations were injected by tail vein injection (IV), with 5 mice per formulation. Each mouse was injected with 300 μL of the human erythropoietin mRNA (hEPO mRNA)-encapsulating lipid nanoparticle formulation.
Serum acquisition: Blood samples of mice were collected 12 h after injection, placed in tubes without anticoagulants, and naturally coagulated at room temperature for 30-60 min, and then centrifuged at a speed of 3500 rpm for 10 min to obtain the supernatant, which was the serum.
The detection of alanine transaminase was carried out according to instructions of the kit (Nanjing Jiancheng Bioengineering Institute, Catalog. No. C009-2-1), and a standard curve was made using the standard provided in the kit. D-PBS was used in the experiment, which was purchased from Sangon Biotech (Shanghai) Co., Ltd., Catalog No. E607009-0600.
The method of detection of enzyme activity of alanine aminotransferase (ALT) in serum of the mice is as follows:
• (1) Enzymatic reaction: 0, 2, 4, 6, 8 and 10 μL of […] sodium pyruvate standard solution were sequentially added to 5 μL of 0.1 mol/L phosphate buffer, and the volume was supplemented to 25 μL with a matrix solution, and repeatedly aspirating and spitting with a pipette for mixing well; • (2) Addition reaction: 20 μL 2,4-dinitrophenylhydrazine solution was added to all reaction wells in (1), mixed by aspirating and spitting, and then placed in an incubator at 37° C. to react for 20 min; • (3) Developing: 200 μL of 0.4 mol/L NaOH solution was added to all reaction wells in (2) to stop the reaction, mixed by aspirating and spitting, and incubated at room temperature for 15 min. The OD value of each well was measured at 510 nm in a microplate reader; and • (4) Data processing of standard curve: The corresponding absolute OD value for each well was obtained by subtracting the OD value for 0 μL well from the measured OD value for each well, the corresponding ALT Karmen units being 0, 28, 57, 97, 150 and 200 U/L, respectively. The standard curve was obtain by taking the absolute OD value as the abscissa and the corresponding Karmen unit as the ordinate.
• (1) Reagent preparation: an ALT matrix solution was placed in an incubator at 37° C. for preheating; • (2) Enzymatic reaction: 5 μL diluted serum was aspirated and added to a 96-well plate, then 20 μL matrix solution was added to the corresponding sample well and mixed by repeatedly aspirating and spitting to avoid bubbling, and then placed in an incubator at 37° C. for 30 min; • (3) Addition reaction: 20 μL 2,4-dinitrophenylhydrazine was added to all reaction wells in (2), mixed by aspirating and spitting, and then reacted in an incubator at 37° C. for 20 min; • (4) Developing: 200 μL of 0.4 mol/L NaOH solution was added to all reaction wells in (3) to stop the reaction, mixed by aspirating and spitting, and then incubated at room temperature for 15 min. […]

[4] = test system: Female BALB/c mice; experiment: IFN-γ Elispot cellular immunity test, spleen lymphocytes of mice immunized with IN002.5.1 mRNA LNP; assay type: in vivo; settings: 50 μL IM, spleen on 7th day after immunization, FIG. 2-4
Experimental: An IN002.5.1 mRNA-encapsulating lipid nanoparticle formulation was prepared according to the method as described in Experimental Example 1, with replacing the luciferase mRNA (Fluc mRNA) with IN002.5.1 mRNA, with a concentration of IN002.5.1 mRNA of 0.2 g/L, a mass ratio of IN002.5.1 mRNA to Lipid of 1:10, a particle size of 80-130 nm, and an encapsulation efficiency of 90% or higher.
The sequence of IN002.5.1 mRNA is one obtained by replacing all uracil (u) in SEQ ID NO. 1 with N1-methylpseudouridine. Of note is that the t (thymine) in the RNA sequence, SEQ ID NO. 1, in the Sequence Listing is actually u (uracil), according to the WIPO Standard ST. 26 for nucleotide or amino acid sequence listing.
as §1
Immunization of mice: Prior to injection of the test LNP formulations, the LNP formulations were gently and repeatedly inverted to thoroughly mix the formulation samples. A corresponding amount of the formulation samples were aspirated with a 1 ml insulin syringe, and the LNP formulations were injected by intramuscular injection (IM) […], with 8 mice per formulation. Each mouse was injected with 50 μL of the IN002.5.1 mRNA encapsulating lipid nanoparticle formulation.
Spleen acquisition: On the 7th day after immunization, 3 to 4 mice from each LNP immunization group were selected and euthanized, and their spleens were acquired in a super clean bench.
Isolation of lymphocytes: The spleens of mice were taken out in a super clean bench. 7 mL of mouse lymphocyte separation solution was added to a 6-well cell culture plate. Mouse spleen cells were ground with a syringe piston, and the suspension of the spleen cells was filtered through a cell screen and immediately transferred to a 15 mL centrifuge tube. […] RPMI 1640 medium was slowly added with keeping the liquid interface distinct. After centrifugation at 800 g with a horizontal rotor at room temperature for 30 minutes, a clear stratification can be visible. The lymphocyte layer was aspirated, then added with 10 mL RPMI 1640 medium, and inverted for washing. The cells were collected by centrifugation at 250 g for 10 min at room temperature, and the red blood cells were lysed. After completing lysis of red blood cells, the supernatant was poured, and the cells were resuspended in culture medium and counted.
Addition of stimulant and culture of lymphocyte: RPMI-1640 medium containing 10% fetal bovine serum was used to activate the pre-coated plate. After standing at room temperature for at least 30 min, the medium was removed, and a cell suspension at adjusted concentration was added ([…]). The medium used to resuspend the cells was used as a background negative control. 10 μL positive stimulant working solution (PMA+Ionomycin (dissolved in DPBS) was added to a positive control well; […] medium used to resuspend the cells was added to a negative control well; 10 µL/well of a peptide library diluted with RPMI 1640 was added to experimental wells. After all samples and the stimulant were added, the plate was covered, incubated in an incubator with 5% CO2 at 37° C. for 16-24 h.
Elispot detection after culture: The cells and the culture medium in the wells were dumped, and the wells were lysed with 200 μL/well of ice-cold deionized water at 4° C. for 10 min. The liquid in the wells were shaken out, and the wells were washed five times with PBS buffer. The wells were incubated with 100 μL/well of 1 μg/ml detection antibody for 2 h at room temperature; and after washing the plate 5 times with PBS, the wells were incubated with 100 μL/well of 1000-fold diluted enzyme labeled avidin (Streptavidin-HRP) for 1 h at room temperature. […]

[5] = test system: Female BALB/c mice; experiment: Humoral immunity test for total binding IgG antibody (ELISA, SARS-COV-2 antigen protein) in serum of immunized mice; assay type: in vivo; settings: IN002.5.1 mRNA LNP, 50 μL IM, serum on 14th day after immunization; FIG. 5-6

Structure (SMILES)	Encapsulation efficiency [1] [%]	Liver (fluorescence expression intensity) [2]	Spleen (fluorescence expression intensity) [2]	Total flux (fluorescence expression intensity) [2]	(Spleen/Total Flux) * 100% [2] [%]	Multiple of spleen delivery/total delivery to amino lipid compound 118 [2]	ALT enzyme activity (Karmen unit) compared to ALC0315 and SM-102 [3]	Cellular immunity effect (IFN-γ Elispot) compared to ALC0315 [4]	Humoral immunity effect (IgG titer) compared to ALC0315 [5]
CCCCCCC(CCCCCC)OC(=O)CCCCCCCCC(CCCCCCCCC(=O)OC(CCCCCC)CCCCCC)OC(=O)N(CCCC(=O)OCCCC)CCCN(C)C [Compound 259]	94.08	1.37E+08	1.29E+07	6.40E+08	2.02	5.93	significantly lower ALT enzyme activity	–	–
CCCCCCC(CCCCCC)OC(=O)CCCCCCCCC(CCCCCCCCC(=O)OC(CCCCCC)CCCCCC)OC(=O)N(CCCC(=O)OCCCCC)CCCN(C)C [Compound 260]	95.36	9.60E+07	3.27E+06	4.11E+08	0.80	2.34	significantly lower ALT enzyme activity	–	–
CCCCCCC(CCCCCC)OC(=O)CCCCCCCCC(CCCCCCCCC(=O)OC(CCCCCC)CCCCCC)OC(=O)N(CCCN(C)C)CCC(=O)OCCC [Compound 263]	–	–	–	–	–	–	significantly lower ALT enzyme activity	better cellular immunity effect	better humoral immunity effect
CCCCCCC(CCCCCC)OC(=O)CCCCCCCCC(CCCCCCCCC(=O)OC(CCCCCC)CCCCCC)OC(=O)N(CCCN(C)C)CCC(=O)OCCCCC [Compound 265]	94.59	7.57E+07	1.91E+06	3.93E+08	0.49	1.43	–	better cellular immunity effect	better humoral immunity effect
CCCCCCOC(=O)CCN(CCCN(C)C)C(=O)OC(CCCCCCCCC(=O)OC(CCCCCC)CCCCCC)CCCCCCCCC(=O)OC(CCCCCC)CCCCCC [Compound 266]	94.26	8.09E+07	1.60E+06	2.67E+08	0.60	1.76	significantly lower ALT enzyme activity	–	better humoral immunity effect
CCCCCCC(CCCCCC)OC(=O)CCCCCCCCC(CCCCCCCCC(=O)OC(CCCCCC)CCCCCC)OC(=O)N(CCCN(C)C)CC(=O)OCCC [Compound 269]	–	–	–	–	–	–	–	–	better humoral immunity effect
CCCCCCC(CCCCCC)OC(=O)CCCCCCCCC(CCCCCCCCC(=O)OC(CCCCCC)CCCCCC)OC(=O)N(CCCN(C)C)CC(=O)OCCCCC [Compound 271]	93.59	7.57E+07	4.76E+06	2.68E+08	1.78	5.22	–	better cellular immunity effect	better humoral immunity effect
CCCCCCCCOC(=O)CN(CCCN(C)C)C(=O)OC(CCCCCCCCC(=O)OC(CCCCCC)CCCCCC)CCCCCCCCC(=O)OC(CCCCCC)CCCCCC [Compound 274]	93.06	7.08E+07	2.60E+06	3.25E+08	0.80	2.35	–	better cellular immunity effect	better humoral immunity effect
